According to patent US12428397B2, “Factor XI activation inhibitors” (Merck Sharp & Dohme LLC, priority 2020, dated 2025):

Molecular target: T1, Human coagulation factor (F)XI (Homo sapiens, UniProt P03951)
T1 construct: purchased Haematologic Technologies Inc. (FXI); Enzyme Research Laboratories (FXIIa) HCXI-150 (FXI); HFXIIa (FXIIa)
Experiment: Inhibition of FXIIa mediated activation of FXI (activation of human Factor XI to XIa by human Factor α-XIIa)
Assay type: biochemical
Conditions: human FXI pre-incubated with compound 30 min at 22° C., activation by human FXIIa 60 min, z-GPR-AFC substrate fluorescence read-out, 4 parameter logistic fit; read-out: Inhibition of FXIIa meditated activation of FXI
Experimental: Inhibition of FXIIa Mediated Activation of FXI
Activation of Human Factor XI to XIa by Human Factor α-XIIa
The assay was performed in 50 mM HEPES, 150 mM NaCl, 5 mM CaCl2, 0.1% PEG-8000, pH 7.4 buffer in black, flat-bottom, polystyrene microplates (Corning, Cat #3573). Serial dilutions (10-point, 3.333-fold) of the test compounds delivered as 10 mM DMSO stocks were prepared in the Labcyte Echo-qualified PP 384 well microplates (Labcyte, Cat #P-05525). Human coagulation factor (F)XI (Haematologic Technologies Inc., Cat #HCXI-150, concentration 46 nM, 19.5 uL) was pre-incubated with 0.5 uL of the test compounds for 30 min at 22° C. The activation was initiated by addition of 10 uL of human coagulation factor (F)XIIa (Enzyme Research Laboratories, Cat #HFXIIa, concentration 30 nM) and the reaction proceeded for 60 min at 22° C., after which it was quenched by addition of a selective inhibitor of FXIIa (Compound 54 in WO2018093695) concentration 600 uM in DMSO, 1 uL. 10 min after the quench, 29 uL of z-GPR-AFC substrate (Sigma, Cat #C0980-10MG, concentration 200 uM) was added into each well and the detection reaction proceeded for 60 min at 22° C. Fluorescence at 405/510 nm was measured in end-point mode using an Envision plate-reader (Perkin Elmer). IDBS Activity Base XE (ABase) analysis using 4 parameter logistic fit was performed to determine Minimum, Maximum, EC50, and Slope Factor for each compound.

T1 sequence (P03951 19-625): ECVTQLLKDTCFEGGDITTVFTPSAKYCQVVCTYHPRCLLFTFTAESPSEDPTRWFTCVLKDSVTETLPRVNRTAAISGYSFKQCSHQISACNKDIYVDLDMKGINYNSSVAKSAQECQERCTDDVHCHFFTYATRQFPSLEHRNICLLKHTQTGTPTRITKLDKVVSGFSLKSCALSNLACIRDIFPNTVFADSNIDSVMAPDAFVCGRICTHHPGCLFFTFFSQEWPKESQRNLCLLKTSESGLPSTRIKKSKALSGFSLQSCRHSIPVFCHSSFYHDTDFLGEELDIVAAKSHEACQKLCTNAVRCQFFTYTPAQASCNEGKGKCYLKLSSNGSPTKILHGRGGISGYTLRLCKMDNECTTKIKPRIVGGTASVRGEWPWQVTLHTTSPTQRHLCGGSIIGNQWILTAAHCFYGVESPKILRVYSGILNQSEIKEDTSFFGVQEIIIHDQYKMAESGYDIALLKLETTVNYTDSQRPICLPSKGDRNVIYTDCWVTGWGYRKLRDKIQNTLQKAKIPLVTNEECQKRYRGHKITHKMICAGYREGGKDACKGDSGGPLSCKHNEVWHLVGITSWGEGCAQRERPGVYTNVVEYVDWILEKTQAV

| Compound | EC50 [nM] |
| --- | --- |
| O=C(c1cc(C(=O)N2CCCCC2)c2cc(OCc3ncc(C(F)(F)F)cc3Cl)ncc2c1)N1CCC(n2cccn2)CC1 [Example 8, (4-(1H-pyrazol-1-yl)piperidin-1-yl)(3-((3-chloro-5-(trifluoromethyl)pyridin-2-yl)methoxy)-5-(piperidine-1-carbonyl)isoquinolin-7-yl)methanone] | 13.4 |
| O=C(c1cc(C(=O)N2CCCCC2)c2cc(OCc3ncc(Cl)cc3Cl)ncc2c1)N1CCC(n2ccnn2)CC1 [Example 5, (4-(1H-1,2,3-triazol-1-yl)piperidin-1-yl)(3-((3,5-dichloropyridin-2-yl)methoxy)-5-(piperidine-1-carbonyl)isoquinolin-7-yl)methanone] | 41 |
| N#CC1(c2ccccc2)CCN(C(=O)c2cc(C(=O)N3CCCCC3)c3cc(OCCCc4cccnc4)ncc3c2)CC1 [Example 4, 4-phenyl-1-(5-(piperidine-1-carbonyl)-3-(3-(pyridin-3-yl)propoxy)isoquinoline-7-carbonyl)piperidine-4-carbonitrile] | 8.5 |
| N#Cc1cccc(COc2cc3c(C(=O)N4CCCCC4)cc(C(=O)N4CCC(C#N)(c5ccccc5)CC4)cc3cn2)c1 [Example 7, 1-(3-((3-cyanobenzyl)oxy)-5-(piperidine-1-carbonyl)isoquinoline-7-carbonyl)-4-phenylpiperidine-4-carbonitrile] | 23.6 |
| O=C(c1cc(C(=O)N2CCCCC2)c2cc(OCc3nc4ccccc4s3)ncc2c1)N1CCC(n2cccn2)CC1 [Example 15, (4-(1H-pyrazol-1-yl)piperidin-1-yl)(3-(benzo[d]thiazol-2-ylmethoxy)-5-(piperidine-1-carbonyl)isoquinolin-7-yl)methanone] | 19.9 |
| N#CC1(c2ccccc2)CCN(C(=O)c2cc(C(=O)N3CCCCC3)c3cc(OCc4ncc(Cl)cc4Cl)ncc3c2)CC1 [Example 6, 1-(3-((3,5-dichloropyridin-2-yl)methoxy)-5-(piperidine-1-carbonyl)isoquinoline-7-carbonyl)-4-phenylpiperidine-4-carbonitrile] | 19.4 |
| N#CC1(c2ccccc2)CCN(C(=O)c2cc(C(=O)N3CCCCC3)c3cc(OCc4ncc(C(F)(F)F)cc4Cl)ncc3c2)CC1 [Example 2, 1-(3-((3-chloro-5-(trifluoromethyl)pyridin-2-yl)methoxy)-5-(piperidine-1-carbonyl)isoquinoline-7-carbonyl)-4-phenylpiperidine-4-carbonitrile] | 26.8 |
| O=C(c1cc(C(=O)N2CCCCC2)c2cc(OCc3ncc(Cl)cc3Cl)ncc2c1)N1CCC(n2cccn2)CC1 [Example 14, (4-(1H-pyrazol-1-yl)piperidin-1-yl)(3-((3,5-dichloropyridin-2-yl)methoxy)-5-(piperidine-1-carbonyl)isoquinolin-7-yl)methanone] | 8.8 |
| N#CC1(c2ccccn2)CCN(C(=O)c2cc(C(=O)N3CCCCC3)c3cc(OCc4ncc(C(F)(F)F)cc4Cl)ncc3c2)CC1 [Example 12, 1-(3-((3-chloro-5-(trifluoromethyl)pyridin-2-yl)methoxy)-5-(piperidine-1-carbonyl)isoquinoline-7-carbonyl)-4-(pyridin-2-yl)piperidine-4-carbonitrile] | 24.3 |
| O=C(c1cc(C(=O)N2CCCCC2)c2cc(OCc3ncc(C(F)(F)F)cc3Cl)ncc2c1)N1CCC(n2ccnn2)CC1 [Example 3, (4-(1H-1,2,3-triazol-1-yl)piperidin-1-yl)(3-((3-chloro-5-(trifluoromethyl)pyridin-2-yl)methoxy)-5-(piperidine-1-carbonyl)isoquinolin-7-yl)methanone] | 32.7 |
| N#Cc1ccc(COc2cc3c(C(=O)N4CCCCC4)cc(C(=O)N4CCC(n5cccn5)CC4)cc3cn2)cn1 [Example 9, 5-(((7-(4-(1H-pyrazol-1-yl)piperidine-l-carbonyl)-5-(piperidine-1-carbonyl)isoquinolin-3-yl)oxy)methyl)picolinonitrile] | 45.7 |
| N#CC1(c2ccccn2)CCN(C(=O)c2cc(C(=O)N3CCCCC3)c3cc(OCc4ncc(Cl)cc4Cl)ncc3c2)CC1 [Example 11, 1-(3-((3,5-dichloropyridin-2-yl)methoxy)-5-(piperidine-1-carbonyl)isoquinoline-7-carbonyl)-4-(pyridin-2-yl)piperidine-4-carbonitrile] | 4.3 |
| O=C(c1cc(C(=O)N2CCCCC2)c2cc(OCc3ccc(Cl)cc3Cl)ncc2c1)N1CCC(n2cccn2)CC1 [Example 13, (4-(1H-pyrazol-1-yl)piperidin-1-yl)(3-((2,4-dichlorobenzyl)oxy)-5-(piperidine-1-carbonyl)isoquinolin-7-yl)methanone] | 49.5 |
| O=C(c1cc(C(=O)N2CCCCC2)c2cc(OCc3ccc(C(F)(F)F)nc3)ncc2c1)N1CCC(n2cccn2)CC1 [Example 10, (4-(1H-pyrazol-1-yl)piperidin-1-yl)(5-(piperidine-1-carbonyl)-3-((6-(trifluoromethyl)pyridin-3-yl)methoxy)isoquinolin-7-yl)methanone] | 33.2 |
| N#CC1(c2ccccc2)CCN(C(=O)c2cc(C(=O)N3CCCCC3)c3cc(OCc4nc5ccccc5s4)ncc3c2)CC1 [Example 1, 1-(3-(benzo[d]thiazol-2-ylmethoxy)-5-(piperidine-1-carbonyl)isoquinoline-7-carbonyl)-4-phenylpiperidine-4-carbonitrile] | 37.9 |
